Reference: patent publication US20220211914A1, “HYALURONIC ACID HYDROGELS WITH PROLONGED ANTIMICROBIAL ACTIVITY” (INSTITUT NATIONAL DE LA SANTE ET DE LA RECHERCHE MEDICALE …, priority 2019, published 2022)
“Also recorded” adds a separate entry of the source.

Columns and labels:
Balb/3T3 cells = assay: Direct in vitro cytotoxicity test (ISO 10993) with MTT test; conditions: 24 h
Method: FIG. 14: Cell viability evaluation by MTT test. Balb/3T3 cells were seeded in 24-well plate and put in contact with HA hydrogel discs loaded or not with PARs for 24 h. HA discs correspond to BDDE-crosslinked HA hydrogel discs without PAR, and HA+PARs correspond to HA hydrogels loaded with different PAR concentrations (mg/mL). (A) Cell images after 24 h of direct in vitro cytotoxicity test. (B) Cell viability measured by MTT test. Dashed line corresponds to 70% viability (cytotoxicity limit).
Direct in vitro cytotoxicity test consists in putting material in contact with the cells for 24 h and performing MTT test to evaluate cell viability. According to ISO 10993, the tested material should cover approximately 1/10 of cell layer surface, which corresponds to ˜5 mm hydrogel discs per well of a 24-well plate.
After 24 h at 37° C., hydrogel discs were removed and MTT test was performed in order to measure cell metabolic activity, which often serves to estimate cell viability. […] The number of viable cells correlates to the colour intensity determined by photometric measurements after dissolving the formazan in alcohol (from ISO 10993).
So the discs, loaded or not with PAR, were sterilized and placed onto ˜80% confluent layer of Balb/3T3 cells. For MTT assay, the cells were incubated for 2 h in 0.2 mg/mL MTT-containing cell culture medium. The medium was then removed and formazan was dissolved in DMSO. Absorbance of resulting solutions was measured at 570 nm using spectrophotometer and images were taken around and under the discs to evaluate cell morphology.

[1] = PAR-FITC release from HA hydrogel discs in NaCl 1 M (confocal microscopy, spectrofluorimetry); conditions: for release according to the confocal microscopy images: 72 h at 37° C. in NaCl 1M, discs loaded with 0.5 mg/mL PAR-FITC; for released PAR (from percentage remaining, image processing): 72 h in NaCl 1 M, 100% = fluorescence intensity before release; for PAR concentration contained in the discs: disc volume approximately 30 μL, loaded in 0.5 mg·mL^−1
Method: FIGS. 20-24: Release of PARs in NaCl and in culture media. HA discs were incubated with 0.5 mg·mL^−1 of three different FITC-conjugated PAR for 24 h. The discs were rinsed, then incubated for 72 h in NaCl 1 M, MH or DMEM.
More specifically, total amounts of PAR contained in the hydrogels were estimated by incubation of hydrogels loaded with fluorescently labelled PAR in concentrated NaCl to promote PAR release. […] The percentage of PAR remaining in the hydrogel discs after 72 h of incubation was measured with image processing; 100% corresponds to fluorescence intensity before release. […] Then, amounts of PAR-FITC released were quantified by measuring fluorescence intensity of the supernatant by spectrofluorimetry and referring to a calibration curve.

[2] = Loading of PAR-FITC into HA hydrogel discs (CLSM images, fluorescence profiles); format: physicochemical; conditions: for distribution in hydrogel discs (fluorescent profiles): discs loaded with 0.5 mg/mL PAR-FITC
Method: FIG. 6: Loading of PAR30-FITC into HA hydrogel discs at different concentrations for 3 h and 24 h. (A) CLSM images (B) Quantification of PAR concentration in the center of the discs.
FIG. 7: Loading of PARs-FITC into HA hydrogel discs. CSLM images of HA hydrogel discs loaded with 0.5 mg/mL of three PARs labelled with FITC (on the left) and fluorescence profiles of the resulting discs (on the right).
To load PAR into the hydrogels, the discs were immersed in PAR solution and incubated at room temperature. For 4 mm discs in 24-well plate, 0.5 mL of PAR solution was used. Then the discs were rinsed with Tris/NaCl buffer two times: one short and one long (at least 1 hour) rinsing.
To visualize PAR loading and diffusion inside the hydrogels, they again used fluorescently-labelled PARs (PAR10-FITC, PAR30-FITC, PAR200-FITC).

[3] = PAR-FITC release from HA hydrogels in MH and DMEM culture media; conditions: for release rate in MH: followed during 72 hours at 37° C. in MH; for release in DMEM/FBS relative to MH: 24 h of incubation at 37° C.
Method: Using FITC-labeled PARs of 10 units, 30 units and 200, the inventors evaluated their release at 37° C. from HA hydrogels in two different media.
They performed discs imaging after 24 h of incubation at 37° C. in MH (Mueller Hinton broth, bacterial culture medium) and in DMEM (Dulbecco's modified Eagle's medium+10% FBS+antibiotics, cell culture medium).
More specifically, PAR release from the hydrogels was followed during 72 hours in microbiological growth medium (MH) or cell culture medium (DMEM). PAR-FITC loaded hydrogels were placed into these media and incubated at 37° C., and PAR release was observed by confocal microscopy (FIG. 22).

[4] = PAR-loaded hydrogel stability in Tris/NaCl buffer; format: physicochemical; conditions: 48 h at room temperature or at 37° C.
bacteria = assay: Repetitive culture of bacteria with PAR-loaded HA hydrogel discs (fresh bacteria every 24 h); format: cell-based; conditions: for duration of antibacterial effect in repetitive culture, additional test: additional test (FIG. 15); for lowest loading concentration showing antibacterial effect: loaded HA hydrogels
Method: Repetitive culture: after 24 h of bacterial culture, the samples were rinsed and seeded with fresh bacteria.
After 24 h of bacterial culture, the samples were rinsed and seeded with fresh bacteria.
Every 24 h of bacterial culture, the samples were seeded with fresh bacteria.

[5] = PAR mobility inside HA hydrogels by FRAP; format: physicochemical; conditions: discs loaded with 0.5 mg/mL FITC-conjugated PAR for 24 h
Method: FIG. 8: PAR mobility inside HA hydrogels. HA discs were loaded with 0.5 mg/mL of three different FITC-conjugated PARs for 24 h and rinsed. Then, FRAP experiments were conducted. (A) Comparison of the fluorescence recovery of three PARs. (B) Determination of the diffusion coefficients D and percentage of mobile molecules p for three PARs.
Next, the inventors studied PARs mobility inside the hydrogels (FIG. 8) using FRAP (fluorescence recovery after photobleaching) technique. […] Quantitative parameters such as diffusion coefficient were also determined (FIG. 8B).

S. aureus = assay: Antibacterial activity of PAR-loaded HA films, S. aureus culture, OD at 620 nm after 24 h; format: cell-based; conditions: loaded into HA hydrogels at 1 mg/mL; preliminary experiments
Method: FIG. 3: Bacterial growth on PAR pre-loaded and post-loaded HA films. Bacterial growth was evaluated after 24 h by optical density (OD) measurement at 620 nm. PARO corresponds to HA film without PAR. HA 2.5%+BDDE 20% films were added with 1 mg/mL PAR after cross-linking (=post-loaded films).
They assessed post-loading of PAR (adding 1 mg/mL solution of PAR onto cross-linked HA films). […] We also followed PAR release after 24 h from post-loaded films.
After 24 h, OD at 620 nm was measured and bacterial viability on the surfaces was assessed using BacLight Redox Sensor CTC Vitality kit (Molecular Probes) as a fluorescent marker.

[6] = hydrogels loaded with 0.05 mg/mL
[7] = 0.1 mg/mL-loaded hydrogels, fresh bacteria added every day
[8] = HA hydrogel discs loaded at 1 mg/mL

Row | Substance | cell viability by MTT test (Balb/3T3 cells; 0.1 mg/mL-loaded hydrogels) | cell viability by MTT test (Balb/3T3 cells; [6]) | release according to the confocal microscopy images [1] | released PAR (from percentage remaining, image processing) [1] | PAR concentration contained in the discs [1] | distribution in hydrogel discs (fluorescent profiles) [2] | release rate in MH [3] | PAR-FITC release in Tris/NaCl buffer [4] | duration of antibacterial effect in repetitive culture, additional test (bacteria; 0.1 mg/mL-loaded hydrogels) [days] | duration of antibacterial effect in repetitive culture (bacteria; [7]) [days] | duration of antibacterial effect in repetitive culture (bacteria; [8]) [days] | lowest loading concentration showing antibacterial effect (bacteria) [mg/mL] | mobility inside the hydrogels (qualitative, FRAP) [5] | antibacterial activity (S. aureus) | diffusion into the disc center, 24 h vs. 3 h loading ([2]; PAR30-FITC loading for 3 h vs. 24 h) | release in DMEM/FBS relative to MH [3] | duration of antibacterial effect in repetitive culture (bacteria; HA hydrogel discs loaded at 0.5 mg/mL) [days] | comparison of prolonged antibacterial effect among PAR lengths (bacteria; PAR10, PAR30, PAR200 loaded HA hydrogels, repetitive culture)
1 | poly-L-arginine [PAR10] | good | good viability | almost complete | about 97% | about 7.3 mg·mL^−1 | more homogeneous distribution | faster | no PAR-FITC release | 3 | 2 | 8 | 0.05 | most mobile | antibacterial activity |  |  |  | 
2 | poly-L-arginine [PAR30] | good | good viability | ~80% | ~78% | ~6.7 mg/mL | more homogeneous distribution | released more gradually | no PAR-FITC release | 5 | 4 | 8 | 0.05 |  | antibacterial activity | diffused more into the discs center | higher than in MH | 8 | most prolonged antibacterial effect; also recorded: most efficient
3 | poly-L-arginine [PAR200] |  |  | ~80% | ~78% | ~3.9 mg/mL |  | released more gradually | no PAR-FITC release |  |  | 7 |  | least mobile | antibacterial activity |  | higher than in MH |  | 
